ChEMBL document CHEMBL1134570, “Synthesis of and a comparative study on the inhibition of muscle and liver glycogen phosphorylases by epimeric pairs of d-gluco- and d-xylopyranosylidene-spiro-(thio)hydantoins and N-(d-glucopyranosyl) amides” (J Med Chem, 2001)
The source made the active and inactive calls. The rule behind the calls is not given here.

Test system: glycogen phosphorylase, muscle form (rabbit)
Assay: Inhibitory activity against muscle Glycogen Phosphorylase b; no inhibition
Settings: Muscle tissue

- NI: inactive
Structure (SMILES): NC(=O)[C@]1(O)OC[C@@H](O)[C@H](O)C1O (stereo partly specified)
